Source: patent US20020137929A1, “1 - (3-heterocyclylphenyl) isothiourea, -isourea, -guanidine and -amidine herbicidal agents” (Intellectual Property Department, BASF Aktiengesellschaft, priority 1998, published 2002)

Tests used:
ABUTH (Velvetleaf) [1] = test: Postemergence herbicidal evaluation; assay type: in vivo, Abutilon theophrasti; settings: postemergence
Summary of the method: (§1)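 Two-week seedlings sprayed postemergence at 40 psi; formulation: 1:1 acetone/water, 0.5% TWEEN 20; application ≈0.0156–0.500 kg/ha. Greenhouse grow-out, then 0–9 visual scoring at 4–5 weeks.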

AMBEL (Ragweed, Common) = test: Postemergence herbicidal evaluation; assay type: in vivo, Ambrosia artemisifolia; settings: postemergence
Summary of the method: as §1

ECHCG (Barnyardgrass) = test: Postemergence herbicidal evaluation; assay type: in vivo, Echinochloa crus-galli; settings: postemergence
Summary of the method: as §1

SETVI (Foxtail, Green) [2] = test: Postemergence herbicidal evaluation; assay type: in vivo, Setaria viridis; settings: postemergence
Summary of the method: as §1

[3] = tested on: GLXMAW (Soybean, Williams); test: Postemergence herbicidal evaluation; assay type: in vivo, Glycine max, (L.) Merr. cv Williams; settings: postemergence
Summary of the method: as §1

ORYSAT (Rice, Tebonnet) = test: Postemergence herbicidal evaluation; assay type: in vivo, Oryza sativa, (L.) Tebonnet; settings: postemergence
Summary of the method: as §1

[4] = tested on: TRZAWR (Wheat, Winter, cv Riband); test: Postemergence herbicidal evaluation; assay type: in vivo, Triticum aestivum; settings: postemergence
Summary of the method: as §1

ABUTH (Velvetleaf) [5] = test: Preemergence herbicidal evaluation; assay type: in vivo, Abutilon theophrasti; settings: preemergence, rated 4-5 weeks after treatment, 0-9 scale
Summary of the method: (§2)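 Each species is sown separately in potting soil over roughly an inch of soil before any emergence. The soil surface then receives an aqueous acetone spray delivering about 0.0156 to 0.500 kg/ha of compound. After four to five weeks, injury is scored from 0 to 9 relative to a control.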

CASOB (Sicklepod) = test: Preemergence herbicidal evaluation; assay type: in vivo, Cassia obtusifolia; settings: preemergence, rated 4-5 weeks after treatment, 0-9 scale
Summary of the method: as §2

SETVI (Foxtail, Green) [6] = test: Preemergence herbicidal evaluation; assay type: in vivo, Setaria viridis; settings: preemergence, rated 4-5 weeks after treatment, 0-9 scale
Summary of the method: as §2

MOOVA (Monochoria) = test: Preemergence weed control under flooded paddy conditions; assay type: in vivo, Monochoria vaginalis; settings: rated 3-4 weeks after treatment
Summary of the method: (§3)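 First, seeds or propagules go into the top 0.5 cm of silt loam; next, water is held 1.5 to 3 cm over the soil; then compound (50/50 acetone/water) is pipetted into it at about 0.0313 to 0.500 kg/ha; finally plants are rated visually 0-9 after three to four weeks.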

[7] = tested on: SAGPY (Arrowhead (Pygmaea)); test: as above; assay type: in vivo, Sagittaria pygmaea; settings: rated 3-4 weeks after treatment
Summary of the method: as §3

CYPIR (Rice Flatsedge) = test: Postemergence weed control under flooded paddy conditions; assay type: in vivo, Cyperus iria; settings: postemergence weeds, rated 3 to 4 weeks after treatment
Summary of the method: (§4)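 Flood-water application, about 0.0313–0.500 kg/ha a.i. in aqueous/acetone 50/50 v/v; water depth 1.5–3 cm throughout. Weeds 3–5 cm, rice 1.5–2.5 leaf. Greenhouse; 0–9 visual rating vs control at 3–4 wk.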

[8] = tested on: SAGPY (Arrowhead (Pygmaea)); test: as above; assay type: in vivo, Sagittaria pygmaea; settings: postemergence weeds, rated 3 to 4 weeks after treatment
Summary of the method: as §4

## C=CCN1C(=O)C(CC(=O)OC(C)C(=O)OCC)SC1=Nc1cc(-n2c(=O)ccn(C)c2=O)c(F)cc1Cl [Compound 94, 3-Allyl-2-{{2-chloro-5-[3,6-dihydro-3-methyl-2,6-dioxo-1(2H)-pyrimidinyl]-4-fluorophenyl}imino}-4-oxo-5-thiazolidineacetic acid, ester with ethyl lactate, (R,S)-]
ABUTH (Velvetleaf) [1]; rate 0.0158 kg/ha
  ABUTH herbicidal rating: 9.0
ABUTH (Velvetleaf) [1]; rate 0.0315 kg/ha
  ABUTH herbicidal rating: 9.0
ABUTH (Velvetleaf) [1]; rate 0.0630 kg/ha
  ABUTH herbicidal rating: 9.0
AMBEL (Ragweed, Common); rate 0.0158 kg/ha
  AMBEL herbicidal rating: 7.0
AMBEL (Ragweed, Common); rate 0.0315 kg/ha
  AMBEL herbicidal rating: 9.0
AMBEL (Ragweed, Common); rate 0.0630 kg/ha
  AMBEL herbicidal rating: 9.0
ECHCG (Barnyardgrass); rate 0.0158 kg/ha
  ECHCG herbicidal rating: 1.0
ECHCG (Barnyardgrass); rate 0.0315 kg/ha
  ECHCG herbicidal rating: 7.0
ECHCG (Barnyardgrass); rate 0.0630 kg/ha
  ECHCG herbicidal rating: 9.0
SETVI (Foxtail, Green) [2]; rate 0.0158 kg/ha
  SETVI herbicidal rating: 9.0
SETVI (Foxtail, Green) [2]; rate 0.0315 kg/ha
  SETVI herbicidal rating: 9.0
SETVI (Foxtail, Green) [2]; rate 0.0630 kg/ha
  SETVI herbicidal rating: 9.0
[3]; rate 0.0158 kg/ha
  GLXMAW herbicidal rating: 9.0
[3]; rate 0.0315 kg/ha
  GLXMAW herbicidal rating: 9.0
[3]; rate 0.0630 kg/ha
  GLXMAW herbicidal rating: 9.0
ORYSAT (Rice, Tebonnet); rate 0.0158 kg/ha
  ORYSAT herbicidal rating: 2.0
ORYSAT (Rice, Tebonnet); rate 0.0315 kg/ha
  ORYSAT herbicidal rating: 4.5
ORYSAT (Rice, Tebonnet); rate 0.0630 kg/ha
  ORYSAT herbicidal rating: 5.0
[4]; rate 0.0158 kg/ha
  TRZAWR herbicidal rating: 6.0
[4]; rate 0.0315 kg/ha
  TRZAWR herbicidal rating: 9.0
[4]; rate 0.0630 kg/ha
  TRZAWR herbicidal rating: 8.0
ABUTH (Velvetleaf) [5]; 0.0156 kg/ha
  ABUTH rating: 0.0
ABUTH (Velvetleaf) [5]; 0.0313 kg/ha
  ABUTH rating: 9.0
ABUTH (Velvetleaf) [5]; 0.0625 kg/ha
  ABUTH rating: 9.0
ABUTH (Velvetleaf) [5]; 0.1250 kg/ha
  ABUTH rating: 9.0
ABUTH (Velvetleaf) [5]; 0.2500 kg/ha
  ABUTH rating: 9.0
CASOB (Sicklepod); 0.0156 kg/ha
  CASOB rating: 0.0
CASOB (Sicklepod); 0.0313 kg/ha
  CASOB rating: 0.0
CASOB (Sicklepod); 0.0625 kg/ha
  CASOB rating: 0.0
CASOB (Sicklepod); 0.1250 kg/ha
  CASOB rating: 0.0
CASOB (Sicklepod); 0.2500 kg/ha
  CASOB rating: 0.0
SETVI (Foxtail, Green) [6]; 0.0156 kg/ha
  SETVI rating: 0.0
SETVI (Foxtail, Green) [6]; 0.0313 kg/ha
  SETVI rating: 0.0
SETVI (Foxtail, Green) [6]; 0.0625 kg/ha
  SETVI rating: 0.0
SETVI (Foxtail, Green) [6]; 0.1250 kg/ha
  SETVI rating: 4.0
SETVI (Foxtail, Green) [6]; 0.2500 kg/ha
  SETVI rating: 9.0
MOOVA (Monochoria); 0.0313 kg/ha
  MOOVA herbicidal effect rating: 9.0
MOOVA (Monochoria); 0.0625 kg/ha
  MOOVA herbicidal effect rating: 9.0
MOOVA (Monochoria); 0.1250 kg/ha
  MOOVA herbicidal effect rating: 9.0
MOOVA (Monochoria); 0.2500 kg/ha
  MOOVA herbicidal effect rating: 9.0
[7]; 0.0313 kg/ha
  SAGPY herbicidal effect rating: 0.0
[7]; 0.0625 kg/ha
  SAGPY herbicidal effect rating: 0.0
[7]; 0.1250 kg/ha
  SAGPY herbicidal effect rating: 5.0
[7]; 0.2500 kg/ha
  SAGPY herbicidal effect rating: 9.0
CYPIR (Rice Flatsedge); Rate 0.0313 kg/ha
  Herbicidal rating CYPIR: 0.0
CYPIR (Rice Flatsedge); Rate 0.0625 kg/ha
  Herbicidal rating CYPIR: 3.0
CYPIR (Rice Flatsedge); Rate 0.1250 kg/ha
  Herbicidal rating CYPIR: 4.0
CYPIR (Rice Flatsedge); Rate 0.2500 kg/ha
  Herbicidal rating CYPIR: 4.0
[8]; Rate 0.0313 kg/ha
  Herbicidal rating SAGPY: 0.0
[8]; Rate 0.0625 kg/ha
  Herbicidal rating SAGPY: 0.0
[8]; Rate 0.1250 kg/ha
  Herbicidal rating SAGPY: 5.0
[8]; Rate 0.2500 kg/ha
  Herbicidal rating SAGPY: 9.0

## C=CCN1C(=O)C(CC(N)=O)SC1=Nc1cc(-n2c(=O)cc(C(F)(F)F)n(C)c2=O)c(F)cc1Cl (stereo not drawn) [Compound 99, 3-Allyl-2-{{2-chloro-5-[3,6-dihydro-3-methyl-2,6-dioxo-4-(trifluoromethyl)-1(2H)-pyrimidinyl]-4-fluorophenyl}imino}-4-oxo-5-thiazolidineacetamide]
ABUTH (Velvetleaf) [1]; rate 0.0156 kg/ha
  herbicidal rating ABUTH: 9.0
ABUTH (Velvetleaf) [1]; rate 0.0313 kg/ha
  herbicidal rating ABUTH: 9.0
ABUTH (Velvetleaf) [1]; rate 0.0625 kg/ha
  ABUTH herbicidal rating: 9.0
ABUTH (Velvetleaf) [1]; rate 0.1250 kg/ha
  ABUTH herbicidal rating: 9.0
AMBEL (Ragweed, Common); rate 0.0156 kg/ha
  herbicidal rating AMBEL: 9.0
AMBEL (Ragweed, Common); rate 0.0313 kg/ha
  herbicidal rating AMBEL: 9.0
AMBEL (Ragweed, Common); rate 0.0625 kg/ha
  AMBEL herbicidal rating: 9.0
AMBEL (Ragweed, Common); rate 0.1250 kg/ha
  AMBEL herbicidal rating: 9.0
ECHCG (Barnyardgrass); rate 0.0156 kg/ha
  herbicidal rating ECHCG: 4.0
ECHCG (Barnyardgrass); rate 0.0313 kg/ha
  herbicidal rating ECHCG: 4.0
ECHCG (Barnyardgrass); rate 0.0625 kg/ha
  ECHCG herbicidal rating: 7.0
ECHCG (Barnyardgrass); rate 0.1250 kg/ha
  ECHCG herbicidal rating: 6.0
SETVI (Foxtail, Green) [2]; rate 0.0156 kg/ha
  herbicidal rating SETVI: 6.0
SETVI (Foxtail, Green) [2]; rate 0.0313 kg/ha
  herbicidal rating SETVI: 7.0
SETVI (Foxtail, Green) [2]; rate 0.0625 kg/ha
  SETVI herbicidal rating: 9.0
SETVI (Foxtail, Green) [2]; rate 0.1250 kg/ha
  SETVI herbicidal rating: 8.0
[3]; rate 0.0156 kg/ha
  herbicidal rating GLXMAW: 6.5
[3]; rate 0.0313 kg/ha
  herbicidal rating GLXMAW: 7.5
[3]; rate 0.0625 kg/ha
  GLXMAW herbicidal rating: 8.0
[3]; rate 0.1250 kg/ha
  GLXMAW herbicidal rating: 8.0
ORYSAT (Rice, Tebonnet); rate 0.0156 kg/ha
  herbicidal rating ORYSAT: 4.0
ORYSAT (Rice, Tebonnet); rate 0.0313 kg/ha
  herbicidal rating ORYSAT: 4.5
ORYSAT (Rice, Tebonnet); rate 0.0625 kg/ha
  ORYSAT herbicidal rating: 5.5
ORYSAT (Rice, Tebonnet); rate 0.1250 kg/ha
  ORYSAT herbicidal rating: 6.5
[4]; rate 0.0156 kg/ha
  herbicidal rating TRZAWR: 4.0
[4]; rate 0.0313 kg/ha
  herbicidal rating TRZAWR: 4.5
[4]; rate 0.0625 kg/ha
  TRZAWR herbicidal rating: 5.5
[4]; rate 0.1250 kg/ha
  TRZAWR herbicidal rating: 6.5
ABUTH (Velvetleaf) [5]; 0.0156 kg/ha
  ABUTH rating: 9.0
ABUTH (Velvetleaf) [5]; 0.0313 kg/ha
  ABUTH rating: 9.0
ABUTH (Velvetleaf) [5]; 0.0625 kg/ha
  ABUTH rating: 9.0
ABUTH (Velvetleaf) [5]; 0.1250 kg/ha
  ABUTH rating: 9.0
ABUTH (Velvetleaf) [5]; 0.2500 kg/ha
  ABUTH rating: 9.0
ABUTH (Velvetleaf) [5]; 0.5000 kg/ha
  ABUTH rating: 9.0
CASOB (Sicklepod); 0.0156 kg/ha
  CASOB rating: 0.0
CASOB (Sicklepod); 0.0625 kg/ha
  CASOB rating: 1.0
CASOB (Sicklepod); 0.1250 kg/ha
  CASOB rating: 2.0
CASOB (Sicklepod); 0.2500 kg/ha
  CASOB rating: 3.0
CASOB (Sicklepod); 0.5000 kg/ha
  CASOB rating: 7.0
SETVI (Foxtail, Green) [6]; 0.0156 kg/ha
  SETVI rating: 0.0
SETVI (Foxtail, Green) [6]; 0.0313 kg/ha
  SETVI rating: 1.0
SETVI (Foxtail, Green) [6]; 0.0625 kg/ha
  SETVI rating: 1.0
SETVI (Foxtail, Green) [6]; 0.1250 kg/ha
  SETVI rating: 6.0
SETVI (Foxtail, Green) [6]; 0.2500 kg/ha
  SETVI rating: 7.0
SETVI (Foxtail, Green) [6]; 0.5000 kg/ha
  SETVI rating: 9.0
MOOVA (Monochoria); 0.0313 kg/ha
  MOOVA herbicidal effect rating: 9.0
MOOVA (Monochoria); 0.0625 kg/ha
  MOOVA herbicidal effect rating: 9.0
MOOVA (Monochoria); 0.1250 kg/ha
  MOOVA herbicidal effect rating: 9.0
MOOVA (Monochoria); 0.2500 kg/ha
  MOOVA herbicidal effect rating: 9.0
MOOVA (Monochoria); 0.5000 kg/ha
  MOOVA herbicidal effect rating: 9.0
[7]; 0.0313 kg/ha
  SAGPY herbicidal effect rating: 0.0
[7]; 0.0625 kg/ha
  SAGPY herbicidal effect rating: 0.0
[7]; 0.1250 kg/ha
  SAGPY herbicidal effect rating: 3.0
[7]; 0.2500 kg/ha
  SAGPY herbicidal effect rating: 4.0
[7]; 0.5000 kg/ha
  SAGPY herbicidal effect rating: 4.0
CYPIR (Rice Flatsedge); Rate 0.0313 kg/ha
  Herbicidal rating CYPIR: 0.0
CYPIR (Rice Flatsedge); Rate 0.0625 kg/ha
  Herbicidal rating CYPIR: 0.0
CYPIR (Rice Flatsedge); Rate 0.1250 kg/ha
  Herbicidal rating CYPIR: 0.0
CYPIR (Rice Flatsedge); Rate 0.2500 kg/ha
  Herbicidal rating CYPIR: 0.0
CYPIR (Rice Flatsedge); Rate 0.5000 kg/ha
  Herbicidal rating CYPIR: 0.0
[8]; Rate 0.0313 kg/ha
  Herbicidal rating SAGPY: 0.0
[8]; Rate 0.0625 kg/ha
  Herbicidal rating SAGPY: 0.0
[8]; Rate 0.1250 kg/ha
  Herbicidal rating SAGPY: 3.0
[8]; Rate 0.2500 kg/ha
  Herbicidal rating SAGPY: 4.0
[8]; Rate 0.5000 kg/ha
  Herbicidal rating SAGPY: 4.0
